Results taken from the supplement of paper PMC12317010.
Counter-ions that a name gives are not always drawn.

Assay: collision cross section in nitrogen (drift tube, single-field); higher = larger gas-phase ion size
[1] = ion type: [M+H], ion source: APCI, ion mode: Positive
[2] = ion type: [M+H], ion source: ESI, ion mode: Positive
[3] = ion type: [M+Na], ion source: ESI, ion mode: Positive
[4] = ion type: [M-H], ion source: ESI, ion mode: Negative
[5] = ion type: [M+], ion source: APCI, ion mode: Positive
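Further: chemical standards at 10 µM analysed by drift tube IMS-QTOF MS in about 3.95 torr nitrogen, mean of duplicate injections differing ≤1%, mass error below 10 ppm.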

For COc1ccc2c(c1)[C@]13CCCC[C@@H]1[C@H](C2)N(C)CC3 [Dextromethorphan hydrobromide], the “collision cross section in nitrogen” value [1] was 166.1 Å² and the “collision cross section in nitrogen” value [2] was 166.7 Å².

With COc1ccc(N)cc1 [4-Methoxybenzenamine] the “collision cross section in nitrogen” value [1] was 120.3 Å² and the “collision cross section in nitrogen” value [2] was 133.2 Å².

With C=CC(=O)OCC(CC)(COC(=O)C=C)COC(=O)C=C [Trimethylolpropane triacrylate] the “collision cross section in nitrogen” value [3] was 165.9 Å².

With CCc1nc(C)c[nH]1 [2-Ethyl-4-methyl-1H-imidazole] the “collision cross section in nitrogen” value [1] was 120.3 Å² and the “collision cross section in nitrogen” value [2] was 121.2 Å².

With Cc1cc(C)c(O)c(C(C)(C)C)c1 [6-tert-Butyl-2,4-xylenol] the “collision cross section in nitrogen” value [4] was 144.9 Å².

In the case of CCc1ccc(O)cc1 [4-Ethylphenol], the “collision cross section in nitrogen” value [5] is reported as 123.4 Å² and the “collision cross section in nitrogen” value [4] is reported as 128.7 Å².

For O=C1C[C@@H]2OCC=C3CN4CC[C@]56c7ccccc7N1[C@H]5[C@H]2[C@H]3C[C@H]46 [Strychnine hemisulphate salt], the “collision cross section in nitrogen” value [1] was 172.6 Å² and the “collision cross section in nitrogen” value [2] was 175.8 Å².

For COc1cc(OC)c(C(=O)CCCN2CCCC2)c(OC)c1 [Buflomedil hydrochloride], the “collision cross section in nitrogen” value [1] was 176 Å², the “collision cross section in nitrogen” value [2] was 176.1 Å² and the “collision cross section in nitrogen” value [3] was 178.9 Å².

In the case of CC(C)(O)C(=O)Nc1ccc([N+](=O)[O-])c(C(F)(F)F)c1 [Hydroxyflutamide], the “collision cross section in nitrogen” value [4] is reported as 157.4 Å².

For CCCCCCCCCCCCCC(=O)OC(CO)CO [2-Myristoyl glycerol], the “collision cross section in nitrogen” value [3] was 183.7 Å².

In the case of C=C(C)C(=O)OCCOC1CC2CC1C1C=CCC21 (centres undefined) [(Dicyclopentadienyloxy)ethyl methacrylate], the “collision cross section in nitrogen” value [3] is reported as 170.7 Å².

With NC(=O)N1c2ccccc2CC(=O)c2ccccc21 [Oxcarbazepine] the “collision cross section in nitrogen” value [1] was 153.9 Å², the “collision cross section in nitrogen” value [2] was 154.8 Å² and the “collision cross section in nitrogen” value [3] was 162.4 Å².

With CC(C)(C)OC(=O)c1ccc(O)cc1 [tert-Butyl 4-hydroxybenzoate] the “collision cross section in nitrogen” value [4] was 148.2 Å².

In the case of Nc1c2ccccc2nc2ccccc12 [9-Aminoacridine hydrochloride monohydrate], the “collision cross section in nitrogen” value [1] is reported as 138.8 Å², the “collision cross section in nitrogen” value [2] is reported as 138.9 Å² and the “collision cross section in nitrogen” value [5] is reported as 139 Å². The “collision cross section in nitrogen” value [4] was 139.3 Å².

With CC(C)(C)C(=O)C(Oc1ccc(Cl)cc1)n1cncn1 (centres undefined) [Triadimefon] the “collision cross section in nitrogen” value [1] was 174.6 Å², the “collision cross section in nitrogen” value [2] was 173.6 Å² and the “collision cross section in nitrogen” value [4] was 167.7 Å².

For CCCC[C@H]1CN(CC2CCOCC2)C(=O)OC12CCN(C1(C)CCN(C(=O)c3c(C)ncnc3C)CC1)CC2, the “collision cross section in nitrogen” value [1] was 245 Å², the “collision cross section in nitrogen” value [2] was 244.1 Å² and the “collision cross section in nitrogen” value [3] was 240.5 Å². The “collision cross section in nitrogen” value [5] was 239.9 Å² and the “collision cross section in nitrogen” value [4] was 248.6 Å².

For Nc1cc(Cl)c(N)c(Cl)c1 [2,6-Dichloro-1,4-benzenediamine], the “collision cross section in nitrogen” value [2] was 135.5 Å² and the “collision cross section in nitrogen” value [5] was 128.1 Å².

For CCNc1nc(Cl)nc(NC(C)(C)C)n1 [Terbutylazine], the “collision cross section in nitrogen” value [1] was 153.8 Å² and the “collision cross section in nitrogen” value [2] was 153.8 Å².

With CCOP(=S)(S)OCC [Ammonium diethyl dithiophosphate] the “collision cross section in nitrogen” value [4] was 134.4 Å².

In the case of O=C1C(N(CO)C(=O)NCO)N(CO)C(=O)N1CO (centres undefined) [Diazolidinyl urea], the “collision cross section in nitrogen” value [1] is reported as 162.8 Å².

With O=C1c2ccccc2C(=O)c2cc(S(=O)(=O)O)ccc21 [Sodium 2-anthraquinonesulfonate] the “collision cross section in nitrogen” value [4] was 162 Å².

With O=S(=O)(O)C(F)(F)C(F)(F)C(F)(F)C(F)(F)C(F)(F)C(F)(F)C(F)(F)C(F)(F)F [Perfluorooctanesulfonic acid] the “collision cross section in nitrogen” value [4] was 168.7 Å².

For CCOC(=O)c1ccc(N(C)C)cc1 [Parbenate], the “collision cross section in nitrogen” value [1] was 149.3 Å² and the “collision cross section in nitrogen” value [2] was 149.6 Å².

For c1cncc([C@@H]2CCCCN2)c1 [Anabasine], the “collision cross section in nitrogen” value [1] was 136.4 Å² and the “collision cross section in nitrogen” value [2] was 135.9 Å².

In the case of O=S(=O)(O)CCCN1CCOCC1 [4-Morpholinepropanesulfonic acid], the “collision cross section in nitrogen” value [1] is reported as 142.7 Å², the “collision cross section in nitrogen” value [2] is reported as 142.4 Å² and the “collision cross section in nitrogen” value [3] is reported as 154.6 Å². For the same compound, the “collision cross section in nitrogen” value [4] was 149.5 Å².

In the case of CCC(=C(c1ccc(O)cc1)c1ccc(OCCN(C)C)cc1)c1ccccc1 [4-Hydroxytamoxifen], the “collision cross section in nitrogen” value [1] is reported as 201 Å², the “collision cross section in nitrogen” value [2] is reported as 200.9 Å² and the “collision cross section in nitrogen” value [3] is reported as 196.9 Å². The “collision cross section in nitrogen” value [4] was 214.6 Å².

For CC(C)(c1ccc(O)cc1)c1ccc(O)cc1 [Bisphenol A], the “collision cross section in nitrogen” value [4] was 161.9 Å².

With CN1Cc2c(N)cccc2C(c2ccccc2)C1 (centres undefined) [Nomifensine] the “collision cross section in nitrogen” value [1] was 155.8 Å² and the “collision cross section in nitrogen” value [2] was 156.2 Å².

For O=C(O)c1cccnc1 [Sodium nicotinate], the “collision cross section in nitrogen” value [1] was 123.5 Å² and the “collision cross section in nitrogen” value [2] was 124.5 Å².

For O=S(=O)(O)c1ccccc1C=Cc1ccc(-c2ccc(C=Cc3ccccc3S(=O)(=O)O)cc2)cc1 [Disodium 4,4'-bis(2-sulfostyryl)biphenyl], the “collision cross section in nitrogen” value [4] was 248.5 Å².

For O=C(NC(=O)c1c(F)cccc1F)Nc1cc(Cl)c(F)c(Cl)c1F [Teflubenzuron], the “collision cross section in nitrogen” value [4] was 178.7 Å².

With CC(C)=C[C@@H]1[C@@H](C(=O)OCc2coc(Cc3ccccc3)c2)C1(C)C [Bioresmethrin] the “collision cross section in nitrogen” value [3] was 188.3 Å².

For CCOC(=O)C1=NOC(c2ccccc2)(c2ccccc2)C1 [Ethyl 5,5-diphenyl-2-isoxazoline-3-carboxylate], the “collision cross section in nitrogen” value [2] was 169.5 Å² and the “collision cross section in nitrogen” value [3] was 187.8 Å².

In the case of O=C1OC[C@H](Cc2cccc(O)c2)[C@H]1Cc1cccc(O)c1 [(-)-Enterolactone], the “collision cross section in nitrogen” value [3] is reported as 178.2 Å² and the “collision cross section in nitrogen” value [4] is reported as 165.3 Å².

With CC(=O)NC1(c2cccc(F)c2)CCN(CC[C@@]2(c3ccc(Cl)c(Cl)c3)CN(c3ccccc3)C(=O)CO2)CC1 the “collision cross section in nitrogen” value [2] was 243.8 Å² and the “collision cross section in nitrogen” value [3] was 250.7 Å².

For N#Cc1cc(Br)c(O)c(Br)c1 [Bromoxynil], the “collision cross section in nitrogen” value [4] was 131.2 Å².

With CCCCC(CC)C(=O)OCCOCCOCCOCCOC(=O)C(CC)CCCC (centres undefined) [Tetraethylene glycol di(2-ethylhexanoate)] the “collision cross section in nitrogen” value [3] was 214.4 Å².

With CCCCCCCCC(=O)NCc1ccc(O)c(OC)c1 [N-Vanillylnonanamide] the “collision cross section in nitrogen” value [3] was 178 Å².

With COc1cccc([C@H](O)C2CCN(CCc3ccc(F)cc3)CC2)c1OC [Volinanserin] the “collision cross section in nitrogen” value [1] was 185 Å², the “collision cross section in nitrogen” value [2] was 185 Å² and the “collision cross section in nitrogen” value [3] was 188 Å².

For O=C(O)c1cccnc1 [Nicotinic acid], the “collision cross section in nitrogen” value [2] was 124.2 Å².

With Cc1ccc(C)c(S(=O)(=O)O)c1 [Sodium 2,5-dimethylbenzenesulfonate] the “collision cross section in nitrogen” value [4] was 138.5 Å².

In the case of O=c1cc[nH]c(=S)[nH]1 [Thiouracil], the “collision cross section in nitrogen” value [4] is reported as 116.1 Å².

With Cc1ccc(N=Nc2c(O)ccc3ccccc23)c(C)c1 [C.I. Solvent Orange 7] the “collision cross section in nitrogen” value [1] was 163.6 Å² and the “collision cross section in nitrogen” value [2] was 166.8 Å².

For CCCCCCCCOC(=O)/C=C\C(=O)OCCCCCCCC [2-Butenedioic acid (2Z)-, dioctyl ester], the “collision cross section in nitrogen” value [3] was 206.4 Å².

For COc1cc(CNC(=O)CCCC/C=C/C(C)C)ccc1O [Capsaicin], the “collision cross section in nitrogen” value [2] was 182 Å², the “collision cross section in nitrogen” value [3] was 173 Å² and the “collision cross section in nitrogen” value [4] was 177.8 Å².

For O=C(O)C(F)(F)C(F)(F)C(F)(F)C(F)(F)C(F)(F)C(F)(F)C(F)(F)F [Perfluorooctanoic acid], the “collision cross section in nitrogen” value [4] was 157 Å².
